Data from US9921163B2, “Method and device for detecting analytes” (IMEC VZW, priority 2013, dated 2018).

Assay: SERS monitoring of boronic acid derivative binding to diol-modified SERS substrate (flow cell)
Description: During the experiments, one type of gold nanostructured SERS substrates were applied. Hereto, a bare SiO2 substrate was cleaned prior to the deposition of polystyrene beads with a diameter of 100 nm (obtained from Thermo Fisher Scientific). Due to electrostatic forces, the nanoparticles form a closed-packed layer on the SiO2 substrate. Then, the substrate was carefully rinsed with H2O. Afterwards, a thin layer of Au (˜50 nm) was deposited onto the polystyrene-coated SiO2 substrate using sputter deposition. The as such obtained SERS substrates were cleaned with an aceton-H2O mixture and dried with a stream of N2. Additionally, the samples were cleaned using UV-O3 treatment for 15 min prior to the experiments.
The SERS substrates were immerged into a solution containing 1 mM thiolated glucose for 3 days at room temperature in the dark (i.e. 1-Thio-β-D-glucose sodium salt dihydrate obtained from Toronto Research Chemicals). […]
The SERS substrates functionalized with the thiolated glucose molecules were mounted into a home-made flow cell connected to a peristaltic pump system. […] The corresponding Raman signal was monitored using a Raman setup of LabRAM. […] FIG. 5 represents the SERS intensity monitored at 1075±1 cm^−1 using a time interval of 25 s. […] The response was also measured in real time as represented in FIG. 8. […]

## OB(O)c1ccccc1 [PBA, Phenyl boronic acid]
1 mM PBA in carbonate buffer, 785 nm, 0.5 mW, 25 s interval
  SERS intensity at 1075±1 cm^−1 (PBA binding to immobilized thiolated glucose): an increase of the signal is obtained over time
Human serum albumin 2000 mg/dl in carbonate mixed 1/1 with 1 mM PBA
  SERS response of PBA interacting with immobilized thiolated glucose in presence of human serum albumin: a clear SERS response
